Experimental data reported in patent US10995064B2, “Sulfamoyl-arylamides and the use thereof as medicaments for the treatment of hepatitis B” (priority 2012, dated 2021).

What was measured:
[1] = system: HBV; test: anti HBV activity, HepG2.117 inducible (Tet-off) cell line, intracellular HBV DNA by realtime PCR; assay type: cell-based; settings: HepG2.117 cells, 3 days of treatment
[2] = system: HBV; test: anti-HBV activity, HepG2.2.15 stable transfected cell line, HBV DNA from secreted virions by realtime PCR; assay type: cell-based; settings: HepG2.2.15 cells, 6 days of treatment, secreted virion HBV DNA
[3] = system: HepG2 cells; test: Cytotoxicity in HepG2 cells, 4 days, Resazurin assay; settings: read-out: HepG2 4 days CC50, 4 days, Resazurin
[4] = system: HepG2 cells; test: Cytotoxicity in HepG2 cells using CellTiter-Blue; assay type: cell-based; settings: 6 days
[5] = Cytotoxicity in HepG2 cells, 4 days, Resazurin assay; settings: human

Row | Structure (SMILES) | EC50 [2] [nM] | CC50 [3] [nM] | further results
1 | COC(=O)N1CCCC(NS(=O)(=O)c2cccc(C(=O)Nc3ccc(F)c(C)c3)c2)C1 (racemic) [Compound 159] | – | – | EC50 ([1]; Hepatitis B virus, 72 h): 300 nM
2 | COC(=O)N1CCCC(NS(=O)(=O)c2cccc(C(=O)Nc3ccc(F)c(C)c3)c2)C1 (racemic) [Compound 159a] | 170 | – | EC50 [1]: 860 nM
3 | COC(=O)N1CCCC(NS(=O)(=O)c2cccc(C(=O)Nc3ccc(F)c(C)c3)c2)C1 (racemic) [Compound 159b] | 160 | – | EC50 [1]: 230 nM
4 | Cc1cc(NC(=O)c2cccc(S(=O)(=O)NC3CC(=O)N(C)C3)c2)ccc1F (racemic) [Compound 179] | – | – | EC50 ([2]; Hepatitis B virus, 144 h): 210 nM; EC50 ([1]; Hepatitis B virus, 72 h): 440 nM
5 | Cc1cc(NC(=O)c2cccc(S(=O)(=O)NC3CC(=O)N(C)C3)c2)ccc1F (racemic) [Compound 179a] | 380 | > 25000 | EC50 [1]: 250 nM
6 | Cc1cc(NC(=O)c2cccc(S(=O)(=O)NC3CC(=O)N(C)C3)c2)ccc1F (racemic) [Compound 179b] | 1110 | > 25000 | EC50 [1]: 1840 nM
7 | Cc1cc(NC(=O)c2cccc(S(=O)(=O)N[C@@H]3CCC[C@H](O)C3)c2)ccc1F (single isomer, unassigned) [Compound 134b, N-(4-fluoro-3-methyl-phenyl)-3-[[(1R,3S)-3-hydroxycyclohexyl]sulfamoyl]benzamide or N-(4-fluoro-3-methyl-phenyl)-3-[[(1S,3R)-3-hydroxycyclohexyl]sulfamoyl]benzamide] | – | – | EC50 [1]: 200 nM
8 | Cc1cc(NC(=O)c2cccc(S(=O)(=O)N[C@H]3Cc4ccccc4[C@@H]3O)c2)ccc1F (single isomer, unassigned) [Compound 141a, N-(4-fluoro-3-methyl-phenyl)-3-[[(1S,2S)-1-hydroxyindan-2-yl]-sulfamoyl]benzamide or N-(4-fluoro-3-methyl-phenyl)-3-[[(1R,2R)-1-hydroxyindan-2-yl]sulfamoyl]benzamide] | 700 | > 25000 | –
9 | Cc1cc(NC(=O)c2cccc(S(=O)(=O)N[C@H]3Cc4ccccc4[C@H]3O)c2)ccc1F (single isomer, unassigned) [Compound 141b, N-(4-fluoro-3-methyl-phenyl)-3-[[(1R,2S)-1-hydroxyindan-2-yl]sulfamoyl]benzamide or N-(4-fluoro-3-methyl-phenyl)-3-[[(1S,2R)-1-hydroxyindan-2-yl]sulfamoyl]benzamide] | – | > 25000 | –
10 | Cc1cc(NC(=O)c2cccc(S(=O)(=O)N[C@@H]3CC[C@H](O)C3)c2)ccc1F (single isomer, unassigned) [Compound 145a, N-(4-fluoro-3-methyl-phenyl)-3-[[(1R,3S)-3-hydroxycyclopentyl]sulfamoyl]benzamide or N-(4-fluoro-3-methyl-phenyl)-3-[[(1S,3R)-3-hydroxycyclopentyl]sulfamoyl]benzamide] | – | > 25000 | –
11 | Cc1cc(NC(=O)c2cccc(S(=O)(=O)N[C@H]3CC[C@H](O)C3)c2)ccc1F (single isomer, unassigned) [Compound 145c, N-(4-fluoro-3-methyl-phenyl)-3-[[(1S,3S)-3-hydroxycyclopentyl]-sulfamoyl]benzamide or N-(4-fluoro-3-methyl-phenyl)-3-[[(1R,3R)-3-hydroxycyclopentyl]sulfamoyl]benzamide] | – | > 25000 | –
12 | Cc1cc(NC(=O)c2cccc(S(=O)(=O)N[C@H]3CC[C@H](O)C3)c2)ccc1F (single isomer, unassigned) [Compound 145d, N-(4-fluoro-3-methyl-phenyl)-3-[[(1S,3S)-3-hydroxycyclopentyl]-sulfamoyl]benzamide or N-(4-fluoro-3-methyl-phenyl)-3-[[(1R,3R)-3-hydroxycyclopentyl]sulfamoyl]benzamide] | 400 | – | –
13 | CC1(NS(=O)(=O)c2cccc(C(=O)Nc3ccc(F)cc3)c2)COC1 [Compound 4] | – | > 100000 | EC50 ([2]; Hepatitis B virus, 144 h): 960 nM; EC50 ([1]; Hepatitis B virus, 72 h): 930 nM
14 | O=C(Nc1ccccc1)c1cc(S(=O)(=O)N2CCCCC2)c(Cl)cc1Cl [Compound 20] | – | 79600 | –
15 | Cc1ccccc1NC(=O)c1cccc(S(=O)(=O)NC2CCCCC2)c1 [Compound 34] | – | – | CC50 [4]: > 25000 nM; EC50 ([2]; Hepatitis B virus, 144 h): 4180 nM
16 | O=C(Nc1ccc(F)cc1)c1cc(S(=O)(=O)N2CCCCC2)cs1 [Compound 61] | – | 35700 | –
17 | CC1(NS(=O)(=O)c2cccc(C(=O)Nc3ccc(F)cc3)c2)CCOCC1 [Compound 83] | – | – | CC50 at 4 days [5]: > 25000 nM
18 | Cc1cc(NC(=O)c2cccc(S(=O)(=O)NC3CCCC(O)C3)c2)ccc1F (centres unmarked) [Compound 134] | – | – | EC50 ([2]; Hepatitis B virus, 144 h): 180 nM
